Test results published in patent US9468662B2, “Use of the PAT nonapeptide in the treatment and prevention of neurodegenerative diseases” (ORPHIT, priority 2010, dated 2016).
No end group written: not given here.

Assays:
[1] = test system: rat primary dopaminergic neurons; experiment: Cellular model of Parkinson's disease, survival of rat primary dopaminergic neurons after 6-hydroxydopamine injury; format: cell-based
Excerpt: 6-hydroxydopamine (6-OHDA) is a selective catecholaminergic neurotoxin that is not only used as a pharmacological agent able to trigger PD-like stigmata (Sauer H. and Oertel W H Neuroscience 1994; 59: 401 and Cass W A et al. Brain Res. 2002; 938: 29) but also likely corresponds to a natural dopaminergic catabolite that accumulates in PD-affected brains and that appears to strongly contribute to this pathology (Jellinger K. et al. J. Neural. Transm. 1995; 46: 297). For this reason, 6-OHDA-induced dopaminergic neurotoxicity in mice is widely used as a model for PD research. Because 6-OHDA also induces neurodegeneration of dopaminergic neurons in vitro, it provides a useful model of PD. In this in vitro test mesencephalic dopaminergic neurons are exposed to 6-OHDA injury. […] After 24 h of intoxication, viable dopaminergic neurons are visualized and quantified by staining with a monoclonal Anti-Tyrosine Hydroxylase (TH) antibody. Tyrosine Hydroxylase is the first and rate-limiting enzyme involved in the biosynthesis of catecholamines like dopamine and norepinephrin from Tyrosine and has a key role in the physiology of adrenergic neurons. Tyrosine hydroxylase is commonly used as a marker for dopaminergic neurons, which is particularly relevant for research in Parkinson's disease.
Rat dopaminergic neurons were cultured as described by Schinelli et al. J. Neurochem. 1988; 50: 1900 and Visanji N P et al. FASEB J. 2008; 22: 2488. Briefly, the midbrains obtained from 15-day old rat embryos (Janvier, France) were dissected under a microscope. The embryonic midbrains were removed and placed in ice-cold medium of Leibovitz (L15) containing 2% of Penicillin-Streptomycin (PS) and 1% of bovine serum albumin (BSA). The ventral portion of the mesencephalic flexure, a region of the developing brain rich in dopaminergic neurons, was used for the cell preparations.
The midbrains were dissociated by trypsinisation for 20 min at 37° C. (Trypsin EDTA 1X). […] Viable cells were counted in a Neubauer cytometer using the trypan blue exclusion test. […]

[2] = Crossing of the blood-brain barrier, inferred from activity by intra-peritoneal route; format: in vivo; details: concluded from biological activity after intra-peritoneal administration
Excerpt: To cross the BBB, persons skilled in the art know that the molecular and physicochemical properties of the molecule must fulfill the 5 criteria described by Lipinski et al. (1997). Adv Drug Del Rev 23: 3-25 (amongst them a low molecular weight, its hydrophobicity, its charge etc. . . . ).

[3] = test system: rat primary GABAergic medium spiny neurons; experiment: Cellular model of Huntington's disease, survival of rat primary GABAergic medium spiny neurons after glutamate injury; format: cell-based
Excerpt: GABAergic medium spiny neurons (MSNs) in the striatum represent the mostly affected cell population in HD brain. Being the main neuronal cell type of the striatum (85% in humans), GABAergic MSNs play a central role in the clinical manifestation of HD. GABA is viewed as the neurotransmitter that inhibits spontaneous involuntary movements, therefore loss of GABAergic MSNs is responsible for chorea development and other involuntary movements. The exquisite vulnerability of MSNs of striatum to degeneration in HD is caused by glutamate excitotoxicity that leads to neuronal dysfunction and death. Excessive activation of NMDA glutamate receptors is observed in post-mortem HD brain tissue (Kumar P. et al. Pharmacol. Rep. 2010; 62: 1). […] After 24 h of intoxication, viable GABAergic neurons are visualized and quantified by staining with a monoclonal anti-Glutamic Acid Decarboxylase antibody (specific for isoform GAD67). […]
For each condition, 30 pictures per well were acquired (representing 80% of the total surface of the well) using ImageXpress (Molecular device) equipped with a LED at 20× magnification. […] The number of GAD67-positive neurons was automatically analyzed using MetaXpress software (Molecular device). […] All values were expressed as mean+/−SEM (s.e. mean) (n=6 wells per condition per culture).

NCCc1cc(O)c(O)cc1O [6-OHDA, 6-hydroxydopamine, reference compound]
reduction of survival of TH-positive dopaminergic neurons compared to control culture conditions ([1]; 6-OHDA 20 μM, 24 h, no protective pre-treatment): 31%

EAKSQGGSD [PAT peptide, Glu-Ala-Lys-Ser-Gln-Gly-Gly-Ser-Asp (EAKSQGGSD)]
survival of TH-positive dopaminergic neurons (% of control condition) ([1]; PAT 10 nM, 1 h pre-incubation, then 6-OHDA 20 μM for 24 h): 100% | passage across the blood-brain barrier [2]: crosses the BBB

N[C@@H](CCC(=O)O)C(=O)O [glutamate, reference compound]
reduction of survival of GAD67-positive MSN compared to control culture conditions ([3]; glutamate 10 μM, 20 min, read after 24 h, no protective pre-treatment): 38%

B1: BNDF: survival promoting brain derived neurotrophic factor used as a positive control (protein, UniProt P23560 19-247, looked up)
Neurotrophic factor BDNF …: APMKEANIRGQGGLAYPGVRTHGTLESVNGPKAGSRGLTSLADTFEHVIEELLDEDQKVRPNEENNKDADLYTSRVMLSSQVPLEPPLLFLLEEYKNYLDAANMSMRVRRHSDPARRGELSVCDSISEWVTAADKKTAVDMSGGTVTVLEKVPVSKGQLKQYFYETKCNPMGYTKEGCRGIDKRHWNSQCRTTQSYVRALTMDSKKRIGWRFIRIDTSCVCTLTIKRGR
protection of TH-positive neurons from 6-OHDA-induced cell death ([1]; BDNF 50 ng/mL (2 nM), 1 h pre-incubation, 6-OHDA 20 μM 24 h): fully protected | survival of GAD67-positive neurons (cell survival, % of control) ([3]; BDNF 50 ng/mL (2 nM), 1 h pre-incubation, glutamate 10 μM 20 min, then 24 h): 81%
